The NIST ThermoML archive (doi:10.1021/je7001122)
“And” between values parts separate entries of the source, which are not always exact repeats. Identical values can stand only once. ± gives the expanded uncertainty stated by the source.

Settings: Liquid

CCCCCCCCCCCCCCCCCCCCCCCCCCCC [octacosane]
Transpiration method
Settings | vapor or sublimation pressure
354.01 K | 2.14e-06 ± 2.6e-07 kPa
373.92 K | 1.77e-05 ± 1.2e-06 kPa and 1.8e-05 ± 1.2e-06 kPa
393.65 K | 0.000122 ± 7e-06 kPa and 0.000126 ± 7e-06 kPa
413.5 K | 0.000633 ± 3.5e-05 kPa and 0.000651 ± 3.6e-05 kPa and 0.00063 ± 3.5e-05 kPa
433.32 K | 0.00293 ± 0.00016 kPa
453.28 K | 0.01264 ± 0.00068 kPa
473.64 K | 0.04404 ± 0.0024 kPa
494.8 K | 0.1554 ± 0.0081 kPa
516.89 K | 0.4272 ± 0.05 kPa

CCCCCCCCCC [decane]
Transpiration method
Settings | vapor or sublimation pressure [kPa]
323.94 K | 0.9556 ± 0.054
353.57 K | 4.252 ± 0.22
373.15 K | 10.05 ± 0.52
402.36 K | 29.48 ± 1.5
402.48 K | 29.36 ± 1.5

CCCCCCCCCCCCCCCCCCCCCCCC [tetracosane]
vapor or sublimation pressure
Settings | Diaphragm manometer | Transpiration method
333.46 K | – | 4.3e-06 ± 5e-07 kPa
353.43 K | – | 4.35e-05 ± 2.4e-06 kPa
353.97 K | – | 4.5e-05 ± 2.5e-06 kPa
373.17 K | 0.000296 ± 2.1e-05 kPa | 0.000307 ± 1.6e-05 kPa
373.61 K | 0.000322 ± 2.2e-05 kPa | 0.000316 ± 1.7e-05 kPa
379.15 K | 0.000531 ± 2.8e-05 kPa | 0.000524 ± 3.1e-05 kPa
393.2 K | 0.001727 ± 5.9e-05 kPa | 0.001725 ± 9e-05 kPa and 0.001721 ± 9e-05 kPa
397.55 K | 0.002432 ± 0.0001 kPa | 0.002406 ± 0.00014 kPa
414.68 K | 0.008547 ± 0.00027 kPa | 0.00843 ± 0.00045 kPa
417.75 K | 0.01055 ± 0.00032 kPa | 0.0105 ± 0.00055 kPa
433.1 K | 0.02857 ± 0.0009 kPa | –
452.6 K | 0.08931 ± 0.0025 kPa | –
